# Where two headings read alike, the source gives them in different places.
# Legend:
# [1] = tested on: Banana Colletotrichum gloeosporioides; assay: Antifungal MIC, broth dilution method; format: cell-based; conditions: 72 h, means from three parallel experiments; for MIC: Colletotrichum gloeosporioides, read-out: minimum inhibitory concentration (MIC) against Banana Colletotrichum gloeosporioides
# Procedure: (§1) The bioactivity test screened the following four phytopathogenic microorganisms: Fusarium oxysporum; Penicillium italicum; Banana Colletotrichum gloeosporioides; and Colletrichum litchi Trag. The minimum inhibitory concentration (MIC) was determined using the broth dilution method, with a minor modification. Fungi were removed from the refrigerator and cultured dynamically at a constant temperature in Potato Dextrose Broth at room temperature for 72 h. The fungal liquid was diluted with broth to 0.5 McFarland turbidity. The sample was prepared into an initial solution of 1 mg/mL with dimethyl sulfoxide (DMSO), and the concentrations of the 1st to 12th wells of the 96-well plate sample group were made by the double dilution method (mg/mL): 1, 0.5, 0.25, 0.125, and 0.0625. Each plate also contained a positive control (ciprofloxacin or carbendazim), as well as a sterile control and growth control (containing broth and fungal liquid, no compound). The plates were incubated at 35 °C for 72 h. The use of 10 μL of a solution with a concentration of 11 mg/mL of Esazurin added to each well of a 96-well plate, followed by incubation at 37 °C for 3 h, allowed for the observation of color changes to determine the minimum inhibitory concentration (MIC) values.
# [2] = tested on: Fusarium oxysporum; assay: Antifungal MIC, broth dilution method; format: cell-based; conditions: 72 h, means from three parallel experiments; for MIC: Fusarium oxysporum, read-out: minimum inhibitory concentration (MIC) against Fusarium oxysporum
# Procedure: as §1
# [3] = tested on: Penicillium italicum; assay: Antifungal MIC, broth dilution method; format: cell-based; conditions: 72 h, means from three parallel experiments; for MIC: Penicillium italicum, read-out: minimum inhibitory concentration (MIC) against Penicillium italicum
# Procedure: as §1
# [4] = tested on: Colletrichum litchi Tra; assay: Antifungal MIC, broth dilution method; format: cell-based, Colletrichum litchi Trag; conditions: 72 h, means from three parallel experiments; for MIC: read-out: minimum inhibitory concentration (MIC) against Colletrichum litchi Tra
# Procedure: as §1
# [5] = tested on: Escherichia coli (ATCC 25922); assay: Antibacterial MIC, broth dilution method; format: cell-based; conditions: mean from three parallel experiments; for MIC: Escherichia coli, ATCC25922, 24 h, read-out: minimum inhibitory concentration (MIC) against Escherichia coli
# Procedure: (§2) The bioactivity test screened the following four human pathogenic microorganisms: Pseudomonas aeruginosa (ATCC 9027); Salmonella typhimurium (ATCC 6539); Escherichia coli (ATCC 25922); and Staphylococcus aureus (ATCC 12598). The minimum inhibitory concentration was determined using the broth dilution method, with a minor modification. Bacteria were removed from the refrigerator and cultured dynamically at a constant temperature in a Mueller–Hinton Broth at room temperature for 24 h. The bacterial liquid was diluted with broth to 0.5 McFarland turbidity. The sample was prepared into an initial solution of 1 mg/mL with dimethyl sulfoxide (DMSO), and the concentrations of the 1st to 12th wells of the 96-well plate sample group were made by the double dilution method (mg/mL): 1, 0.5, 0.25, 0.125, and 0.0625. Each plate also contained a positive control (ciprofloxacin or carbendazim), as well as a sterile control and growth control (containing broth and bacterial liquid, no compound). The plates were incubated at 35 °C for 24 h. The use of 10 μL of a solution with a concentration of 11 mg/mL of Esazurin added to each well of a 96-well plate, followed by incubation at 37 °C for 3 h, allowed for the observation of color changes to determine the minimum inhibitory concentration (MIC) values.
# [6] = tested on: Pseudomonas aeruginosa (ATCC 9027); assay: Antibacterial MIC, broth dilution method; format: cell-based; conditions: mean from three parallel experiments; for MIC: Pseudomonas aeruginosa, ATCC9027, 24 h, read-out: minimum inhibitory concentration (MIC) against Pseudomonas aeruginosa
# Procedure: as §2
# [7] = tested on: Salmonella typhimurium (ATCC 6539); assay: Antibacterial MIC, broth dilution method; format: cell-based; conditions: 24 h, mean from three parallel experiments; for MIC: Salmonella enterica, read-out: minimum inhibitory concentration (MIC) against Salmonella typhimurium
# Procedure: as §2
# [8] = tested on: Staphylococcus aureus (ATCC 12598); assay: Antibacterial MIC, broth dilution method; format: cell-based; conditions: mean from three parallel experiments; for MIC: Staphylococcus aureus, ATCC12598, 24 h, read-out: minimum inhibitory concentration (MIC) against Staphylococcus aureus
# Procedure: as §2
# [9] = tested on: RAW 264.7 cells; assay: MTT cell viability (cytotoxicity); format: cell-based; conditions: RAW 264.7 cells
# Procedure: (§3) The MTT method was utilized to assess cell viability. RAW 264.7 cells, at a concentration of 5 × 10^5 cells/mL, were plated in 96-well plates and exposed to lipopolysaccharide (LPS, at 1 μg/mL) in the presence or absence of the test compounds for a duration of 24 h. Following this, 100 μL of a 2 mg/mL MTT solution was introduced into each well, and after a 4 h incubation, the resulting formazan precipitates were dissolved in 100 μL of DMSO. The optical density was then determined at 490 nm using a microplate reader (Multiskan GO, Thermo Scientific, Waltham, MA, USA). The results were presented as the average percentage of cell viability relative to the untreated control group.
# [10] = DPPH scavenging assay; conditions: 30 min at 37 °C in the dark, read-out: Radical Scavenging Activity (IC50)
# Procedure: The assay for scavenging 1,1-Diphenyl-2-picrylhydrazyl radical 2,2-Diphenyl-1-(2,4,6-trinitrophenyl)hydrazyl (DPPH free radicals) was conducted following a previously established modified protocol. The DPPH was dissolved in ethanol to prepare a 0.5 mmol/L DPPH ethanolic solution (10 mL), which was stored away from light. Subsequently, 100 μL of the DPPH solution was added to each well of a 96-well plate. The sample was prepared into an initial solution of 200 μM with ethanol, and the concentrations of the 1st to 12th wells of the 96-well plate sample group were made by the double dilution method (μM): 200,100, 50, 25, and 12.5 μM. The reaction was monitored by measuring the absorbance at 490 nm using a microplate reader (iMark, Bio-Rad, Hercules, CA, USA) after shaking the reaction for 30 min at 37 °C in the dark. The DPPH radical scavenging activity was determined by a comparison of the absorbance of the samples and a blank control. Vitamin C was used as a positive control at the same concentration as the other samples.
# [11] = tested on: NO production in LPS-stimulated RAW 264.7 cells; assay: Inhibition of LPS-stimulated NO production, Griess assay; format: cell-based; conditions: LPS (1 μg/mL)-stimulated RAW 264.7 cells
# Procedure: Compounds 1–2 were evaluated for their inhibitory effects on LPS-stimulated NO production in RAW 264.7 cells using the Griess assay. The cell line RAW 264.7, obtained from the Cell Bank of the Chinese Academy of Sciences (CBCAS) in Shanghai, China, was propagated in Dulbecco’s Modified Eagle Medium (DMEM) supplemented with 10% Fetal Bovine Serum (FBS). In the logarithmic growth phase, the cells were digested with trypsin and inoculated into 96-well plates (1 × 10^5/well). After being cultured at 37 °C with 5% CO2 for 12 h, the cells were treated with DMEM containing different concentrations of compounds (0, 3.125, 6.25, 12.5, 25, 50, and 100 μM). Two hours later, the cells were treated with LPS at a concentration of […] (1 μg/mL) and incubated under standard cell culture conditions for a period of 24 h. Fifty microliters of cell supernatant was mixed with an equal volume of Griess reagent (1% anhydrous p-aminobenzene sulfonic acid and 0.1% N-1-naphthalene ethylenediamine hydrochloride in 5% concentrated phosphoric acid). Absorbance was measured with a microplate reader at 540 nm. The IC50 values were calculated using the SPSS 25.0 statistical software analysis package based on the inhibition rate of each group.
# [12] = MTT cell viability (cytotoxicity); format: cell-based; conditions: mouse; for IC50 at 24 h: MTT assay, read-out: cytotoxic effects on RAW 264.7 cells (IC50)
# Procedure: as §3
# [13] = RAW 264.7 cells, MTT, evaluated with cell viability at 50 μM, read-out: Cytotoxicity (CC50)
Compound,IC50 [10],MIC [1],MIC [2],MIC [3],MIC [4],MIC [5],MIC [6],MIC [7],MIC [8],"IC50 ([11]; Mus musculus, RAW264.7, 24 h)",IC50 at 24 h ([12]; RAW 264.7 cells),"CC50 at 24 h [12, 13]",further results
3-hydroxy-4-(3-hydroxyphenyl)quinolin-2(1H)-one [Compound 3],> 200 µM,–,–,–,–,–,–,–,–,–,–,–,"minimum inhibitory concentration (MIC) against Banana Colletotrichum gloeosporioides [1]: >1000 µg/mL; minimum inhibitory concentration (MIC) against Fusarium oxysporum [2]: 250 µg/mL; minimum inhibitory concentration (MIC) against Penicillium italicum [3]: 500 µg/mL; minimum inhibitory concentration (MIC) against Colletrichum litchi Tra [4]: 1000 µg/mL; minimum inhibitory concentration (MIC) against Escherichia coli ([5]; 24 h): 1000 µg/mL; minimum inhibitory concentration (MIC) against Pseudomonas aeruginosa ([6]; 24 h): 125 µg/mL; minimum inhibitory concentration (MIC) against Salmonella typhimurium [7]: 1000 µg/mL; minimum inhibitory concentration (MIC) against Staphylococcus aureus ([8]; 24 h): >1000 µg/mL; IC50 ([9]; MTT assay, read-out: cytotoxic effects on RAW 264.7 cells (IC50)): < 50 µM; CC50 ([9]; MTT, evaluated with cell viability at 50 μM): < 50 µM"
"COC(=O)Nc1nc2ccccc2[nH]1 [Carbendazim, reference compound]",–,< 30 µg/mL,< 30 µg/mL,< 30 µg/mL,< 30 µg/mL,–,–,–,–,–,–,–,–
"O=C(O)c1cn(C2CC2)c2cc(N3CCNCC3)c(F)cc2c1=O [Ciprofloxacin, reference compound]",–,–,–,–,–,< 30 µg/mL,< 30 µg/mL,< 30 µg/mL,< 30 µg/mL,–,–,–,–
"CC1OC(=O)C(C2CCNC3=C2C(=O)OC3C)=C1O (stereo not shown) [Compound 1, penifuranone A]",180 µM,> 1000 µg/mL,250 µg/mL,250 µg/mL,1000 µg/mL,1000 µg/mL,500 µg/mL,1000 µg/mL,> 1000 µg/mL,42.2 µM,> 50 µM,> 50 µM,IC50 ([11]; 24 h): 42.2 ± 2.26 µM; melting point: 156.7 to 158.2 °C
CCCCCCCCCCCCCCCC(=O)OC1=C([C@@H]2CCN(C(=O)CCCCCCCCCCCCCCC)C3=C2C(=O)O[C@@H]3C)C(=O)O[C@@H]1C [Compound 1a],> 200 µM,> 1000 µg/mL,250 µg/mL,125 µg/mL,1000 µg/mL,> 1000 µg/mL,125 µg/mL,1000 µg/mL,> 1000 µg/mL,–,< 50 µM,< 50 µM,melting point: 76.6 to 77.2 °C
"C[C@H]1OC(=O)C(CC2=C(O)[C@@H](C)OC2=O)=C1O [Compound 2, (+) - (5R, 5′R) - 3,3′-methylenebistetronic acid]",120 µM,> 1000 µg/mL,250 µg/mL,250 µg/mL,500 µg/mL,1000 µg/mL,500 µg/mL,1000 µg/mL,> 1000 µg/mL,37 ± 0.88 µM,> 50 µM,> 50 µM,–
"O=c1[nH]c2ccccc2c(-c2ccccc2)c1O [Compound 4, 3-hydroxy-4-phenylquinolin-2(1H)-one]",> 200 µM,> 1000 µg/mL,250 µg/mL,250 µg/mL,1000 µg/mL,> 1000 µg/mL,500 µg/mL,1000 µg/mL,1000 µg/mL,–,< 50 µM,< 50 µM,–
"C[C@@H]1C[C@H]2[C@@H]3CCC4=CC(=O)C=C[C@]4(C)[C@@]3(F)[C@@H](O)C[C@]2(C)[C@@]1(O)C(=O)CO [Dexamethasone, reference compound]",–,–,–,–,–,–,–,–,–,58.2 ± 1.74 µM,–,> 50 µM,–
"COc1ccc2c(c1)c(CC(=O)O)c(C)n2C(=O)c1ccc(Cl)cc1 [Indomethacin, reference compound]",–,–,–,–,–,–,–,–,–,35.8 ± 5.7 µM,–,–,CC50 at 24 h [12]: > 50 µM
"O=C1O[C@H]([C@@H](O)CO)C(O)=C1O [Vitamin C, reference compound]",68.4 µM,–,–,–,–,–,–,–,–,–,–,–,–
